According to US20260159486A1, “BENZO[H]QUINAZOLINE-4-AMINE DERIVATIVES FOR THE TREATMENT OF CANCER” (Redona Therapeutics, Inc., priority 2021, published 2026):

How the values were obtained:
MDA-MB-231 cells = assay: MDA-MB-231 proliferation assay; assay type: cell-based; conditions: Homo sapiens, MDA-MB-231, 72 h, YO-PRO-1 Iodide readout
Summary of the method: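 Cells seeded at 750 per well, treated next day for 72 h at 37 °C with 0.5% final DMSO. Cell number read by YO-PRO-1 fluorescence after lysis, normalized to DMSO (100%) and time-zero cells (0%). GI50 from 4-parameter logistic fit, maximum constrained to 100%.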

[1] = test system: phospho-SRSF6 in MDA-MB-468 cells; assay: Inhibition of phospho-SRSF6 levels in MDA-MB-468 cells (Western blot); assay type: cell-based; conditions: Homo sapiens, 2 hours, compared to DMSO control
Protocol: FIG. 1: FIG. 1 provides a representative Western blot showing reduction of phosphorylated-SRSF6 (P—SRSF6) in MDA-MB 468 cells by compounds of the invention. GAPDH was probed for by Western blotting to control for equal protein loading and for normalization of samples. The numbers below the blots show percent inhibition of the P—SRSF6 signal at 100 nM (A) or 10 nM (B) compared to DMSO control.
Assessment of Inhibition of Phospho-SRSF6 Levels in MDA-MB-468 Cells
MDA-MB-468 cells (ATCC, HTB-132) were cultured in DMEM (BioConcept cat. no. 1-26F03) supplemented with 10% FBS (Sigma cat. no. F9665), […] (Sigma cat. no. S8636), 1% Penicillin-Streptomycin (BioConcept cat. no. 4-01FOO-H). When cells reached a density of 70% o in 6-well plates (TPP cat. no. 92006), they were treated either with the test compound vehicle DMSO, or with experimental compounds at a final concentration of either 10 or 100 nM for 2 hours. Thereafter, the culture medium was removed and cells were collected by scraping in Lysis Buffer (20 mM Tris HCl pH7.5, 150 mM NaCl, 1 mM EGTA, 1 mM EDTA, 1% o Triton and 1% o NP-40) containing protease and phosphatase inhibitors (Halt™ Protease&Phosphatase inhibitor cocktail 100× ThermioScientific cat. no. 1861281) and 1 mM PMSF (Fluka cat. no. 93482). Cleared lysates were stored in Eppendorfftubes at −80° C. until use, and protein concentration in lysates was determined using Pierce 660 nm Protein Assay Reagent (ThermioScientific cat. no. 22660). 20 μg proteins were diluted in 4× Laemmli buffer (Biorad cat. no. 161-0747) containing 10% beta-mercaptoethanol, separated by SDS-PAGE using 10% gels, and then transferred to PVDF membranes (Trans Blot Turbo Transfer Pack BioRad cat. no. 1704156) by Trans-Blot® Turbo™ System semidry blotting methodology (BioRad). Primary antibodies were incubated in TBS-0.1% Tween-20 buffer containing 3% BSA Bovine Albumin Fr.V (Millipore cat. no. 81-053-3) overnight at 4° C. The following primary antibodies were used: Mouse anti-phosphoepitope SR proteins clone 1H4 (Millipore cat. no. MABE50) diluted 1:5000, and rabbit anti-GAPDH clone 14C10 (Cell Signaling cat. no. 2118S) to control for equal protein loading, diluted 1:2000. HRP-conjugated secondary antibodies were incubated one hour at room temperature diluted 1:5000 in TBS-0.1% Tween-20 buffer containing […] nonfat-dried bovine milk (Sigma cat. no. M7409). The following secondary antibodies were used: Goat anti-mouse-HRP (Jackson cat. no. 115-035-146) and goat anti-rabbit-HRP (Jackson cat. no. 111-035-144). Membranes were incubated with ECL Prime Western Blot Detection Reagent (Amersham cat. no. RPN2236) to detect specific signals using Fusion SOLO S device (Vilber Lourmat). Pixel intensity of the phopsho-SRSF6 (MW 55 kDa in reference to markers) and GAPDH (MW 37 kDa) signals in the Western blots were determined using Evolution-Capt image analysis software (v17.01, Vilber Lourmat). DMSO control was used to set the phospho-SRSF6 signal at baseline, phospho-SRSF6 signals for each sample were normalized by the respective GAPDH signals and percent intensity of P—SRSF6 signal at 10 and 100 nM compound compared to DMSO control was calculated (see FIG. 1).

- GI50 (MDA-MB-231 cells): 0.1 to 2 µM
SMILES: COCCN(C)c1c(O[C@H]2CC[C@H](N)CC2)ccc2c1CC(C)(C)c1c(N)ncnc1-2 [Example 13, 8-(trans-4-aminocyclohexoxy)-N7-(2-methoxyethyl)-N7,5,5-trimethyl-6H-benzo[h]quinazoline-4,7-diamine]
- inhibition at 0.01 µM ([1]; 10 nM, read-out: >50% p-SRSF6 reduction at 10 nM): < 50%
- inhibition at 0.1 µM ([1]; 100 nM, read-out: >50% p-SRSF6 reduction at 100 nM): > 50%
